Reference: PMC6063448, “Antimicrobial activity of linear lipopeptides derived from BP100 towards plant pathogens” (PLoS ONE, 2018)

Tested on: defense-related genes in tomato plants
Assay: Induction of defense gene expression of tomato plants (RT-qPCR)
Format: in vivo, tomato cv. Rio Grande
Conditions: for BCB gene expression, fold induction / ERT3 gene expression, fold induction / GluA gene expression, fold induction / Harp gene expression, fold induction / LOX gene expression, fold induction / Osm2 gene expression, fold induction / PPO gene expression, fold induction / PR1 gene expression, fold induction / PinII gene expression, fold induction / Sub1 gene expression, fold induction / Tas14 gene expression, fold induction: tomato leaves sprayed, 24 h, peptides and flg15 125 μM, JA 2.5 mM, ASM 300 mg/L, ΔΔCt relative to actin, above 2 = overexpression; for Defense gene expression in tomato plants (genes overexpressed): treatment at 125 μM, significant overexpression (REST2009)
Method: Seeds of tomato cv. Rio Grande plants were sown in hydroponic seed plugs (rockwool), germinated and grown under controlled greenhouse conditions (25 ± 2°C, 16 h light / 15 ± 2°C, 8 h dark, and 60% RH). Two-week old seedlings (two cotyledons) were transplanted into rockwool plugs (7.5×7.5×6.5 cm, Grodan Iberica). The experimental design consisted of three replicates of three plants per treatment. After two weeks, tomato leaves were sprayed with aqueous solutions of BP100, 9 selected derivatives and flg15 at 125 μM, jasmonic acid at 2.5 mM (Sigma-Aldrich, Sant Louis, Missouri, UE), and acybenzolar-S-methyl at 300 mg/L (Syngenta, Basel, Switzerland), until the run-off point. Water-sprayed plants were used as not treated controls. Twenty-four hours after product application leaf samples were collected and processed to extract RNA for RT-qPCR assays. Plant material was ground to a fine powder in liquid nitrogen with the Tissuelyzer II system (Qiagen). Total RNA was extracted from leaves using PureLink Plant RNA Reagent (Invitrogen, Life Technologies) according to the manufacturer’s manual. The RNA was solubilized in RNAse free water and was routinely subjected to DNAse treatment (Ambion® Turbo DNA-free™, Life Technologies) to remove any contaminant DNA. In each step, the RNA was quantified using a Nanodrop N-2000 spectrophotometer, and its integrity verified by denaturing agarose gel electrophoresis. First-strand of complementary DNA (cDNA) was generated from leave RNA using reverse transcriptase (High Capacity cDNA Reverse Transcription Kit, Invitrogen) according to the manufacturer’s manual.
To test gene defense induction in the treated tomato plants, a qPCR assay was performed. Quantitative PCR was carried out in a fluorometric thermal cycler (qPCR Quant Studio 5, Applied Biosystems) by using a Mix SYBR®Green PCR Master Mix (Applied Biosystems). The total reaction volume of this PCR reaction was 20 μL and the reaction mixture was 1 μL of each primer set at the adequate concentration, 10 μL of MixSyber Green, 6 μL of distilled water and 2 μL of cDNA. Melting curve analysis was performed after amplification to verify amplification specificity. A constitutive gene (actin gene) was used as reference control, and the following genes implicated in plant defense response were analyzed: Pathogenesis-related protein-1 (PR1), Harpin (Harp), Polyphenol oxidase (PPO), Subtilisin-like protease (Sub1), Blue copper binding-protein (BCB), Osmotin (Osm2), Acidic β-1,3 endoglucanase (GluA), Lypoxigenase (LOX), Protein inhibitor II (PinII), Dehydrin (Tas14) and Ethylene response transcription factor (ERT3). […] For each gene system, the concentration of the primer pair was optimized. The primer concentration was 100 nM for all the genes except for the GluA, Harp, PR1 and actin genes which optimized concentration was 300 nM. A calibration curve was prepared by cloning the corresponding DNA in the pSpark cloning vector (Canvax, Córdoba, Spain) according to the manufacturer instructions, which was then used to transform E. coli DH5α by standard procedures. The number of plasmid copies were quantified after purification from E. coli (QIAGEN Iberia, S. L., Madrid, Spain), and appropriate dilutions were prepared to obtain the standard curve. […] Relative quantification of gene expression was done using the ΔΔCt method. Each biological repetition treatment was analyzed in duplicate. The mean of the Ct values obtained were used to estimate the fold change value of the endogenous reference gene (actin) and the target plant defense genes.

| SMILES | BCB gene expression, fold induction | ERT3 gene expression, fold induction | GluA gene expression, fold induction | Harp gene expression, fold induction | LOX gene expression, fold induction | Osm2 gene expression, fold induction | PPO gene expression, fold induction | PR1 gene expression, fold induction | PinII gene expression, fold induction | Sub1 gene expression, fold induction | Tas14 gene expression, fold induction | Defense gene expression in tomato plants (genes overexpressed) |
| --- | --- | --- | --- | --- | --- | --- | --- | --- | --- | --- | --- | --- |
| CCCCCC(=O)NCCCC[C@H](NC(=O)[C@H](CC(C)C)NC(=O)[C@H](CCCCN)NC(=O)[C@H](CCCCN)NC(C)=O)C(=O)N[C@@H](CCCCN)C(=O)N[C@@H](CCCCN)C(=O)N[C@H](C(=O)N[C@@H](CC(C)C)C(=O)N[C@@H](CCCCN)C(=O)N[C@@H](Cc1ccc(O)cc1)C(=O)N[C@@H](CC(C)C)C(N)=O)[C@@H](C)CC [BP371, Ac-KKLK(COC5H11)KKILKYL-NH2] | 1.0 | 0.9 | 0.5 | 0.9 | 1.1 | 0.9 | 0.6 | 0.7 | 1.7 | 0.8 | 0.7 | – |
| CCCC(=O)NCCCC[C@H](NC(=O)[C@H](CCCCN)NC(=O)[C@H](Cc1ccccc1)NC(=O)[C@H](CC(C)C)NC(=O)[C@H](CCCCN)NC(=O)[C@H](CCCCN)NC(C)=O)C(=O)N[C@H](C(=O)N[C@@H](CC(C)C)C(=O)N[C@@H](CCCCN)C(=O)N[C@@H](Cc1ccc(O)cc1)C(=O)N[C@@H](CC(C)C)C(N)=O)[C@@H](C)CC [BP385, Ac-KKLFKK(COC3H7)ILKYL-NH2] | 4.2 | 0.2 | 0.7 | 2.3 | 1.1 | 1.2 | 1.7 | 3.2 | 7.1 | 1.0 | 0.7 | one gene (Osm2, Tas14 or BCB) |
| CCCC(=O)NCCCC[C@H](NC(=O)[C@H](Cc1ccc(O)cc1)NC(=O)[C@H](CCCCN)NC(=O)[C@H](CC(C)C)NC(=O)[C@@H](NC(=O)[C@H](CCCCN)NC(=O)[C@H](CCCCN)NC(=O)[C@H](Cc1ccccc1)NC(=O)[C@H](CC(C)C)NC(=O)[C@H](CCCCN)NC(=O)[C@H](CCCCN)NC(C)=O)[C@@H](C)CC)C(N)=O [BP390, Ac-KKLFKKILKYK(COC3H7)-NH2] | 0.6 | 0.7 | 0.6 | 0.5 | 1.2 | 3.0 | 0.9 | 0.2 | 0.2 | 0.7 | 1.0 | one gene (Osm2, Tas14 or BCB) |
